These results are taken from ChEMBL document CHEMBL5113390, “Design, synthesis and antitumor evaluation of novel 1H-indole-2-carboxylic acid derivatives targeting 14-3-3η protein” (Eur J Med Chem, 2022).

pIC50, pKd: −log10 of the molar value.

One test deals with Bel-7402. Briefly: Antiproliferative activity against human Bel-7402 cells assessed as reduction in cell viability incubated for 72 hrs by MTT assay. In kind it is functional, cell-based. Particulars: Bel-7402, 72 h. A general note: Tetrazolium assays rely on reduction of a dye to a coloured formazan, in cell work by metabolically active cells.
The next test concerns the target T1, 14-3-3 protein eta (Homo sapiens, UniProt Q04917).
T1 sequence (Q04917 whole entry): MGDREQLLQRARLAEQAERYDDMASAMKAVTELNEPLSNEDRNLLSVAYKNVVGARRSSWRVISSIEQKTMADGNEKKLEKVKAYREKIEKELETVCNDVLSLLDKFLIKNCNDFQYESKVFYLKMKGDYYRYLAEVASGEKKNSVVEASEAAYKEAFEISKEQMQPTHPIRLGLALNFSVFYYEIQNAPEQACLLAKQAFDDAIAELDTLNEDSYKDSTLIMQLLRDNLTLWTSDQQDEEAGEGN
Briefly: Binding affinity to 14-3-3 eta (unknown origin) assessed as dissociation constant by biolayer interferometry assay.

The next test has as its system SMMC-7721. Briefly: Antiproliferative activity against human SMMC-7721 cells assessed as reduction in cell viability incubated for 72 hrs by MTT assay. In kind it is functional, cell-based. As to conditions: SMMC-7721, 72 h.
Another test relates to SNU-387. Briefly: Antiproliferative activity against human SNU-387 cells assessed as reduction in cell viability incubated for 72 hrs by MTT assay. It is filed as functional, cell-based. Particulars: SNU-387, 72 h.
In the next test the test system is HepG2. Put plainly: Antiproliferative activity against human HepG2 cells assessed as reduction in cell viability incubated for 72 hrs by MTT assay. In kind it is functional, cell-based. As to conditions: HepG2, 72 h.
The next test relates to Hep 3B2. Briefly: Antiproliferative activity against human Hep3B cells assessed as reduction in cell viability incubated for 72 hrs by MTT assay. In kind it is functional, cell-based.
The next test relates to Bel7402/5-FU. Put plainly: Antiproliferative activity against human BEL-7402/5-FU cells overexpressing 14-3-3 eta assessed as reduction in cell viability incubated for 72 hrs by MTT assay. In kind it is functional, cell-based.

For the compound `COc1ccc(Cn2c(C(=O)O)c(CNC(=O)c3cccc(OC)c3)c3ccc(C)cc32)cc1`, in the test with Bel-7402, the pIC50 was < 4.30. Moreover, the pKd on 14-3-3 protein eta was 4.25.
For the compound `O=[As][As+](=O)[O-]` (centres undefined) [ARSENIC TRIOXIDE], the pKd at 14-3-3 protein eta is 3.96.
As to `COc1cccc(CNCc2c(C(=O)O)n(Cc3ccc(F)cc3)c3ccccc23)c1`, the negative logarithm of the IC50 (pIC50) with Bel-7402 is < 4.30. Further, the pKd at 14-3-3 protein eta was 3.80.
For `COc1cccc(CNCc2c(C(=O)O)n(Cc3ccc(C)cc3)c3ccccc23)c1`, the pIC50 in the test on Bel-7402 was 4.67; with SMMC-7721, 5.20; in the test on SNU-387 it was 4.84; in the test on HepG2, 4.86; with Hep 3B2 it was 4.84; in the test with Bel7402/5-FU, 5.03.
In the case of `COc1cccc(CNCc2c(C(=O)O)n(Cc3ccccc3)c3cc(C(C)C)ccc23)c1`, the pIC50 is 5.23 with Bel-7402; 5.45 in the test with SMMC-7721; 5.29 in the test on SNU-387; 5.50 with HepG2; 5.39 with Hep 3B2; 5.23 in the test on Bel7402/5-FU. Also, the negative-log Kd (pKd) on 14-3-3 protein eta is 4.26.
Regarding `COc1ccc(Cn2c(C(=O)O)c(CNCc3cc(OC)ccc3O)c3ccc(C)cc32)cc1`, the pIC50 in the test on Bel-7402 is < 4.30.
For `COc1cccc(CNCc2c(C(=O)O)n(Cc3ccccc3F)c3cc(C(C)C)ccc23)c1`, the pIC50 in the test on Bel-7402 is 5.25; with SMMC-7721, 5.49; in the test with SNU-387 it was 5.22; in the test on HepG2, 5.48; with Hep 3B2, 5.28; in the test on Bel7402/5-FU, 5.28. For the same compound, the pKd on 14-3-3 protein eta is 4.43.
As for `COc1ccc(Cn2c(C(=O)O)c(CNCc3cccc(O)c3)c3ccccc32)cc1`, in the test with Bel-7402, the pIC50 was < 4.30.
`CNC(=O)c1cc(Oc2ccc(NC(=O)Nc3ccc(Cl)c(C(F)(F)F)c3)cc2)ccn1` [SORAFENIB]: the pIC50 in the test with Bel-7402 was 5.22; in the test on SMMC-7721 it was 5.31; in the test on SNU-387 it was 4.91; in the test with HepG2, 5.48; in the test on Hep 3B2, 5.26; in the test on Bel7402/5-FU, 4.88.
As for `COc1cccc(CNCc2c(C(=O)O)n(Cc3ccccc3)c3cc(C)ccc23)c1`, the pIC50 is 4.90 in the test on Bel-7402; 5.33 in the test with SMMC-7721; 5.09 in the test on SNU-387; 5.28 with HepG2; 5.14 with Hep 3B2; 4.92 with Bel7402/5-FU.
Consider `COc1ccc(Cn2c(C(=O)O)c(CNCc3cccc(O)c3)c3ccc(C)cc32)cc1`, for which the pIC50 was 4.70 in the test on Bel-7402; 4.46 with SMMC-7721; 5.00 in the test on SNU-387; 5.34 with HepG2; 4.93 in the test with Hep 3B2; < 4.30 with Bel7402/5-FU.
With `CCNC(=O)c1c(CNCc2ccc(OC)cc2)c2ccccc2n1Cc1ccc(OC)cc1`, the pIC50 in the test with Bel-7402 is 4.23.
On the same count and under the same terms, the value for `COc1cccc(CNCc2c(C(=O)O)n(Cc3ccccc3F)c3ccccc23)c1` was < 4.30.
With `COc1ccc(Cn2c(C(=O)O)c(CNCc3ccc(O)c(OC)c3)c3ccc(C(C)C)cc32)cc1`, the pIC50 is 5.08 with Bel-7402; 5.23 in the test on SMMC-7721; 5.27 in the test with SNU-387; 5.44 with HepG2; 5.33 in the test on Hep 3B2; 5.10 in the test with Bel7402/5-FU.
With `COc1ccc(Cn2c(C(=O)O)c(CNCc3cccc(OC)c3)c3ccc(C(F)F)cc32)cc1`, the pIC50 in the test with Bel-7402 was < 4.30.
On the same count and under the same terms, next, `COc1ccc(Cn2c(C(=O)O)c(CNCc3cccc(OC)c3)c3ccc(C)cc32)cc1`: 5.01; `COc1ccc(Cn2c(C(=O)O)c(CNCc3cccc(OC)c3)c3ccccc32)cc1`: 4.28.
`COc1cccc(CNCc2c(C(=O)O)n(Cc3ccccc3F)c3cc(C)ccc23)c1`: the pIC50 in the test with Bel-7402 was < 4.30. Moreover, the pKd on 14-3-3 protein eta is < 3.70.
As to `COc1cccc(CNCc2c(C(=O)O)n(Cc3ccc(O)cc3)c3cc(C(C)C)ccc23)c1`, the pIC50 in the test on Bel-7402 was 5.15; in the test on SMMC-7721 it was 5.43; with SNU-387 it was 5.29; in the test with HepG2, 5.79; in the test with Hep 3B2 it was 5.27; with Bel7402/5-FU, < 4.30. Besides, at 14-3-3 protein eta, the pKd is 4.13.
For the compound `COc1cccc(CNCc2c(C(=O)O)n(Cc3ccc(O)cc3)c3ccccc23)c1`, the pIC50 with Bel-7402 is < 4.30.
Still for that read-out and setting: next, `COc1cccc(CNCc2c(C(=O)O)n(Cc3ccc(O)cc3)c3cc(C)ccc23)c1`: < 4.30.
Take `COc1ccc(Cn2c(C(=O)O)c(CNCc3cccc(O)c3)c3ccc(C(C)C)cc32)cc1`: the pIC50 is 5.03 with Bel-7402; 5.30 in the test with SMMC-7721; 5.16 in the test on SNU-387; 5.31 with HepG2; 5.18 with Hep 3B2; 4.82 with Bel7402/5-FU. Also, at 14-3-3 protein eta, the negative logarithm of the Kd (pKd) is 4.66.
For `COc1cccc(CNCc2c(C(=O)O)n(Cc3ccc(N)cc3)c3cc(C(C)C)ccc23)c1`, the pIC50 with Bel-7402 is 5.02; in the test with SMMC-7721 it was 4.95; in the test with SNU-387, 5.05; with HepG2 it was 5.13; in the test on Hep 3B2, 4.95; with Bel7402/5-FU it was < 4.30.
On to `COc1ccc(Cn2c(C(=O)O)c(CNCc3cccc(OC)c3)c3ccc(C(F)(F)F)cc32)cc1`, for which the pIC50 in the test on Bel-7402 is < 4.30.
On to `COc1cccc(CNCc2c(C(=O)O)n(Cc3ccc(C)cc3)c3cc(C)ccc23)c1`, for which the pIC50 with Bel-7402 is 5.25; in the test on SMMC-7721, 5.46; with SNU-387, 5.28; with HepG2, 5.30; with Hep 3B2, 5.20; in the test with Bel7402/5-FU it was 5.14.
Take `COc1ccc(Cn2c(C(=O)O)c(CNCc3ccc(O)c(OC)c3)c3ccccc32)cc1`: in the test with Bel-7402, the pIC50 is < 4.30. Also, on 14-3-3 protein eta, the negative logarithm of the Kd (pKd) is 3.85.
On to `COc1ccc(Cn2c(C(=O)O)c(CNCc3ccc(O)c(OC)c3)c3ccc(C)cc32)cc1`, for which the pIC50 in the test on Bel-7402 is 4.88; in the test with SMMC-7721, 5.11; in the test on SNU-387 it was 5.21; with HepG2, 5.43; in the test with Hep 3B2, 5.09; in the test with Bel7402/5-FU it was < 4.30. Also, the pKd at 14-3-3 protein eta was < 3.70.
With `COc1ccc(Cn2c(C(=O)O)c(CN(C)Cc3cccc(OC)c3)c3ccc(C)cc32)cc1`, the pIC50 in the test on Bel-7402 is 4.48; in the test on SMMC-7721, 4.96; with SNU-387, 4.70; in the test with HepG2, 4.81; in the test on Hep 3B2, 4.84; in the test with Bel7402/5-FU it was 5.13. Besides, the pKd at 14-3-3 protein eta was < 3.70.
For the compound `COc1cccc(CNCc2c(C(=O)O)n(Cc3ccccc3)c3ccccc23)c1`, the pIC50 with Bel-7402 was < 4.30.

In general, pIC50 refers to −log10 of the IC50, conventionally taken in molar units. As usually defined, the pKd is −log10 of the Kd, conventionally taken in molar units.
